Legend:
Assay in all cases: NCI 60 cell-line test
Assay type in all cases: cell-based, human
786-0 = 786-0 (Renal Cancer)
Summary of the method: (§1)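 SRB protein stain, A515, TCA-fixed; 48 h continuous drug exposure, ≥5 concentrations at 10-fold dilutions; RPMI 1640/5% FBS. GI50 = 50% reduction in net protein increase vs control; TGI at Ti=Tz; LC50 at 50% loss vs time zero.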

A498 = A498 (Renal Cancer)
Summary of the method: as §1

ACHN = ACHN (Renal Cancer)
Summary of the method: as §1

CAKI-1 = CAKI-1 (Renal Cancer)
Summary of the method: as §1

EKVX = EKVX (Non-Small Cell Lung Cancer)
Summary of the method: as §1

MCF7 = MCF7 (Breast Cancer)
Summary of the method: as §1

NCI-H322M = NCI-H322M (Non-Small Cell Lung Cancer)
Summary of the method: as §1

NCI-H460 = NCI-H460 (Non-Small Cell Lung Cancer)
Summary of the method: as §1

RXF 393 = RXF 393 (Renal Cancer)
Summary of the method: as §1

SF-268 = SF-268 (CNS Cancer)
Summary of the method: as §1

SK-OV-3 = SK-OV-3 (Ovarian Cancer)
Summary of the method: as §1

SNB-19 = SNB-19 (CNS Cancer)
Summary of the method: as §1

SW-620 = SW-620 (Colon Cancer)
Summary of the method: as §1

T-47D = T-47D (Breast Cancer)
Summary of the method: as §1

UO-31 = UO-31 (Renal Cancer)
Summary of the method: as §1

[1] = read-out: LC50 (the source's name)

Compound: CC1(C)C2CC[C@@]1(CS(=O)(=O)N(C1CCCCC1)C1CCCCC1)C(O)C2 (stereo partly drawn) [MT103]
- TGI (786-0): >1.00E−04
- IC50 (786-0; read-out: G150): 46.3 µM
- CC50 (786-0; [1]): > 100 µM
- TGI (A498): 9.07E−05
- IC50 (A498; read-out: G150): 30.4 µM
- CC50 (A498; [1]): > 100 µM
- TGI (ACHN): >1.00E−04
- IC50 (ACHN; read-out: G150): 23.8 µM
- CC50 (ACHN; [1]): > 100 µM
- TGI (CAKI-1): 9.05E−05
- IC50 (CAKI-1; read-out: G150): 23.5 µM
- CC50 (CAKI-1; [1]): > 100 µM
- TGI (EKVX): 9.83E−05
- IC50 (EKVX; read-out: G150): 31.3 µM
- CC50 (EKVX; [1]): > 100 µM
- TGI (MCF7): 9.05E−05
- IC50 (MCF7; read-out: G150): 20.6 µM
- CC50 (MCF7; [1]): > 100 µM
- TGI (NCI-H322M): >1.00E−04
- IC50 (NCI-H322M; read-out: G150): 27.3 µM
- CC50 (NCI-H322M; [1]): > 100 µM
- TGI (NCI-H460): >1.00E−04
- IC50 (NCI-H460; read-out: G150): 30.9 µM
- CC50 (NCI-H460; [1]): > 100 µM
- TGI (RXF 393): 9.77E−05
- IC50 (RXF 393; read-out: G150): 24.2 µM
- CC50 (RXF 393; [1]): > 100 µM
- TGI (SF-268): >1.00E−04
- IC50 (SF-268; read-out: G150): 35.8 µM
- CC50 (SF-268; [1]): > 100 µM
- TGI (SK-OV-3): >1.00E−04
- IC50 (SK-OV-3; read-out: G150): 83.2 µM
- CC50 (SK-OV-3; [1]): > 100 µM
- TGI (SNB-19): >1.00E−04
- IC50 (SNB-19; read-out: G150): 68 µM
- CC50 (SNB-19; [1]): > 100 µM
- TGI (SW-620): >1.00E−04
- IC50 (SW-620; read-out: G150): 28.8 µM
- CC50 (SW-620; [1]): > 100 µM
- TGI (T-47D): >1.00E−04
- IC50 (T-47D; read-out: G150): 62 µM
- CC50 (T-47D; [1]): > 100 µM
- TGI (UO-31): 8.94E−05
- IC50 (UO-31; read-out: G150): 28 µM
- CC50 (UO-31; [1]): > 100 µM

— US20040266732A1, “Therapeutic agents, methods, and treatments” (priority 2002, published 2004)
